According to patent EP4745135A1 (Gluetacs Therapeutics (Shanghai) Co., Ltd., priority 2023, dated 2025):

Tests used:
CK1α = target: T1, CK1α (Homo sapiens, UniProt P48729+Q96SW2); assay: Western blot, degradation of substrate protein in hPBMCs; type: cell-based
T1 construct: effects of the compounds of the present disclosure on the expression of target proteins in cells; endogenous in cells; host or cells: human PBMCs (Milecell Biotechnologies)

IKZF1 = target: T2, IKZF1 (Homo sapiens, UniProt Q13422+Q96SW2); assay: as above; type: cell-based
T2 construct: effects of the compounds of the present disclosure on the expression of target proteins in cells; endogenous in cells; host or cells: human PBMCs (Milecell Biotechnologies)

IKZF2 = target: T3, IKZF2 (Homo sapiens, UniProt Q96SW2+Q9UKS7); assay: as above; type: cell-based
T3 construct: effects of the compounds of the present disclosure on the expression of target proteins in cells; endogenous in cells; host or cells: human PBMCs (Milecell Biotechnologies)

IKZF3 = target: T4, IKZF3 (Homo sapiens, UniProt Q96SW2+Q9UKT9); assay: as above; type: cell-based
T4 construct: effects of the compounds of the present disclosure on the expression of target proteins in cells; endogenous in cells; host or cells: human PBMCs (Milecell Biotechnologies)

WEE1 = target: T5, WEE1 (Homo sapiens, UniProt P30291+Q96SW2); assay: as above; type: cell-based
T5 construct: effects of the compounds of the present disclosure on the expression of target proteins in cells; endogenous in cells; host or cells: human PBMCs (Milecell Biotechnologies)

GSPT1 = assay: as above; type: cell-based, Human
[1] = target: T6, human Cereblon WT GST-tagged protein (Homo sapiens, UniProt Q96SW2); assay: CRBN-binding affinity, HTRF (CEREBLON BINDING kit); settings: for inhibition at 0.5 µM: read-out: Inhibition Rate at 0.5 µM (%); for inhibition at 2 µM: read-out: Inhibition Rate at 2 µM (%)
T6 construct: purchased CISBIO 64BDCRBNPEH

[2] = tested on: Human breast cancer cell (MCF-7); assay: Tumor cell proliferation inhibition (CellTiter-Meiluncell luminescent cell viability assay); settings: MCF7, 96 h; for inhibition at 0.01 µM: read-out: Inhibition Rate at 10 nM (%); for inhibition at 0.5 µM: read-out: Inhibition Rate at 500 nM (%)
[3] = tested on: Human multiple myeloma cell (MM.1S); assay: as above; settings: Homo sapiens, MM1.S, 96 h
[4] = Western blot, 24 hours of compound treatment, compounds tested at 50 nM and 500 nM (concentration for the table not stated)
[5] = 24 hours treatment, compounds at 50 nM and 500 nM (concentration behind the class not stated)

T6 sequence (Q96SW2 whole entry): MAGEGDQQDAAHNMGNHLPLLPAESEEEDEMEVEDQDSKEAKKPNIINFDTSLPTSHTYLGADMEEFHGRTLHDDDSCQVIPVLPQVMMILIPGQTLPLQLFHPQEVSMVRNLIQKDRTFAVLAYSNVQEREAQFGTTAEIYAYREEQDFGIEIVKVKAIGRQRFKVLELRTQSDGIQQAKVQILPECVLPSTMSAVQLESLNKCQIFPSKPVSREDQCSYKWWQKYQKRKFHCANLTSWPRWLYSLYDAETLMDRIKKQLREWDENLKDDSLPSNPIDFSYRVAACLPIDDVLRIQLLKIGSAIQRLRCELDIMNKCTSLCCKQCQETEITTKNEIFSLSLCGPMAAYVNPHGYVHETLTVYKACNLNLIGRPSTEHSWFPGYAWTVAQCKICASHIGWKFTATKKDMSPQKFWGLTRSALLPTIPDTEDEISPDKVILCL
T1 sequence (P48729 whole entry): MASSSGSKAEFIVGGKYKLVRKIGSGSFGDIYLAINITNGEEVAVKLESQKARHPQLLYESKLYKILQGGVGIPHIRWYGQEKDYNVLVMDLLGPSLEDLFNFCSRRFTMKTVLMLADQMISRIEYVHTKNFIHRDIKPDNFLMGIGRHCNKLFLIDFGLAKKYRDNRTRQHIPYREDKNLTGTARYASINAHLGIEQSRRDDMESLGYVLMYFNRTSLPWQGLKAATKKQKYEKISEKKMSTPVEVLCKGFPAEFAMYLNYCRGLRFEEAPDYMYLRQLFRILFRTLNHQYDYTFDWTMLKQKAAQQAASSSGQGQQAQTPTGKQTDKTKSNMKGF
T1 sequence (Q96SW2 whole entry): as the sequence (Q96SW2 whole entry) above
T1 sequence (Q16531 whole entry partner): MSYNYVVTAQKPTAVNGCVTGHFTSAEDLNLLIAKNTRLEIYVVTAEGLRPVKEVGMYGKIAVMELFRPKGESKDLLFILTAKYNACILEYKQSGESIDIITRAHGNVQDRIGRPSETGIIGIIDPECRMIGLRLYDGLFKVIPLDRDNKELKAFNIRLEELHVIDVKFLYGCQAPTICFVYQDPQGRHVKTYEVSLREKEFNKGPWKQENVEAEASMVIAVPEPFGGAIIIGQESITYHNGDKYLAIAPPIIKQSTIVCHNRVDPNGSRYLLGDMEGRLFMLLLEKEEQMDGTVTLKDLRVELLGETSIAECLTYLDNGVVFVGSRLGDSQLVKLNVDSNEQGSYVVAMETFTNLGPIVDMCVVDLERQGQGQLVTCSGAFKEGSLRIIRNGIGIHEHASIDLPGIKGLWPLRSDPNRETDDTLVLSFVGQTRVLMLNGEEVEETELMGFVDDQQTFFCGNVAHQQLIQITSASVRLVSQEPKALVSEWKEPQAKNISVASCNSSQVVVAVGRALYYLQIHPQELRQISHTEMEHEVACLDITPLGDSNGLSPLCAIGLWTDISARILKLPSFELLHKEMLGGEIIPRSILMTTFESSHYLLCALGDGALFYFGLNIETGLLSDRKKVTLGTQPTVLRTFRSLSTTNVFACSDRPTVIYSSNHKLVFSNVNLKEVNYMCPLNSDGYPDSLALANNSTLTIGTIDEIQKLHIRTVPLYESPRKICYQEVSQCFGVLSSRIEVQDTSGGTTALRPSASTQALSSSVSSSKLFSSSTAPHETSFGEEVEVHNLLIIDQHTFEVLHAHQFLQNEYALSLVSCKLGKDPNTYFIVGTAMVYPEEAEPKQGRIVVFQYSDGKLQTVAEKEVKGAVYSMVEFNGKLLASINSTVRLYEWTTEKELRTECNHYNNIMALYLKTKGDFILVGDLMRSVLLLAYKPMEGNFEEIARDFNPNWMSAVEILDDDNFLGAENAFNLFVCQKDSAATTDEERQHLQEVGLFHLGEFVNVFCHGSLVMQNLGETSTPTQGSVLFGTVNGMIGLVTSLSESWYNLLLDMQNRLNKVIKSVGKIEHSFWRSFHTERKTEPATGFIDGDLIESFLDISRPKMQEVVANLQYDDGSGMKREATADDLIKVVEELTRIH
T5 sequence (P30291 whole entry): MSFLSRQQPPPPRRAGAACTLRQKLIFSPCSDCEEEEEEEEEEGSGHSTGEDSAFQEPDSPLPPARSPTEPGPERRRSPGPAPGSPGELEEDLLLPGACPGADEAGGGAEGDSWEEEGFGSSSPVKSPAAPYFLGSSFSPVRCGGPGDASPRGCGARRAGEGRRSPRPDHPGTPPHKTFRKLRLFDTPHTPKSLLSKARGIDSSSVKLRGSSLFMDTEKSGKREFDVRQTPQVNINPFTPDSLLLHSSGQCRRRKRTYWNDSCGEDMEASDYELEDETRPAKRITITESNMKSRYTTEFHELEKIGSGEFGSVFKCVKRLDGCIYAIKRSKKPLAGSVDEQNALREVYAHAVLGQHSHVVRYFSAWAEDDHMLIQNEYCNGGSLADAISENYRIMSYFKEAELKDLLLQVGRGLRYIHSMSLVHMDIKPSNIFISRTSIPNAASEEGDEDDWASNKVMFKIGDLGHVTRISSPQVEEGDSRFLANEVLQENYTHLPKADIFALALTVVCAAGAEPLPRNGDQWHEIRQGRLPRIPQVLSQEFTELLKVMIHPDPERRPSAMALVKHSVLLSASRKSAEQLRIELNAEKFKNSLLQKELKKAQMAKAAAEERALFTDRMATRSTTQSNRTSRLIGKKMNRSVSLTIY
T5 sequence (Q96SW2 whole entry): as the sequence (Q96SW2 whole entry) above
T5 sequence (Q16531 whole entry partner): as the sequence (Q16531 whole entry partner) above
T4 sequence (Q9UKT9 whole entry): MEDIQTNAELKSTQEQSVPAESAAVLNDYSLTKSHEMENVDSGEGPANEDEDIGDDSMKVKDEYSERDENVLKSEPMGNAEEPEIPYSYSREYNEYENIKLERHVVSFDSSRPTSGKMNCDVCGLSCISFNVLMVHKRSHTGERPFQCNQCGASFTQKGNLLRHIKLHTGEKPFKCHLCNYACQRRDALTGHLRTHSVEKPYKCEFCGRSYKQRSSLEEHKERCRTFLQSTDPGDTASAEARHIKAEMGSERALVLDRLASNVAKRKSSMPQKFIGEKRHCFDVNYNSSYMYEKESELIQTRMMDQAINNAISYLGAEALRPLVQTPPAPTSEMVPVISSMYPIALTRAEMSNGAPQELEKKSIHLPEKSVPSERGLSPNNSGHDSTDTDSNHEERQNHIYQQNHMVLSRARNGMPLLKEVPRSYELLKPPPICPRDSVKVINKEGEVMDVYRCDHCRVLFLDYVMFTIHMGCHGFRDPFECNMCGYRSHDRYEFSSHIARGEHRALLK
T4 sequence (Q96SW2 whole entry): as the sequence (Q96SW2 whole entry) above
T4 sequence (Q16531 whole entry partner): as the sequence (Q16531 whole entry partner) above
T2 sequence (Q13422 whole entry): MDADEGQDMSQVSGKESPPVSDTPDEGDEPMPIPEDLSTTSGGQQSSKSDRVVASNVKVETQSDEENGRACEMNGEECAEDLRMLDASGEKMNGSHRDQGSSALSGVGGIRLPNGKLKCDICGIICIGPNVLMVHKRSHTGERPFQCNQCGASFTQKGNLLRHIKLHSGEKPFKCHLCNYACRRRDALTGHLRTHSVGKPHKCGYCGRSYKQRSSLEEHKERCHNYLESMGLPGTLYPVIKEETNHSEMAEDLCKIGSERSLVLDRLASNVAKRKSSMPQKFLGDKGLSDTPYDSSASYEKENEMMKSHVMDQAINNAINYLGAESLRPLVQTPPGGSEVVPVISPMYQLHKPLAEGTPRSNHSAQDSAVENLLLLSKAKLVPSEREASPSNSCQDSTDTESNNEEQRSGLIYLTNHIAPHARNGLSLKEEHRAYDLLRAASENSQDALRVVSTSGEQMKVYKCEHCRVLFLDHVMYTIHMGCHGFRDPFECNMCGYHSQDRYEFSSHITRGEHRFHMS
T2 sequence (Q96SW2 whole entry): as the sequence (Q96SW2 whole entry) above
T2 sequence (Q16531 whole entry partner): as the sequence (Q16531 whole entry partner) above
T3 sequence (Q9UKS7 whole entry): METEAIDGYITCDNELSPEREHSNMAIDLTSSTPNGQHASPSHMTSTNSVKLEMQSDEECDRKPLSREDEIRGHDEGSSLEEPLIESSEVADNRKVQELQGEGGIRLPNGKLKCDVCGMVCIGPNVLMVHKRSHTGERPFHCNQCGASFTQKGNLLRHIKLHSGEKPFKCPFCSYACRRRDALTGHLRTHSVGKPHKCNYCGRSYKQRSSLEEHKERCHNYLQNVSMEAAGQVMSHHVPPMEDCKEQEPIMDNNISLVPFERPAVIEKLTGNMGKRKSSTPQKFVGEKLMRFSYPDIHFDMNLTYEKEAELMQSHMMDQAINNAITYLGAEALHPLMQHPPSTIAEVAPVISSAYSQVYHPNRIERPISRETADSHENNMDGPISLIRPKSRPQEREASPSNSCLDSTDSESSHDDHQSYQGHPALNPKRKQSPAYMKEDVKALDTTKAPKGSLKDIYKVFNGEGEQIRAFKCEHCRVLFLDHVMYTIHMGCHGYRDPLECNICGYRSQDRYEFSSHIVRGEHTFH
T3 sequence (Q96SW2 whole entry): as the sequence (Q96SW2 whole entry) above
T3 sequence (Q16531 whole entry partner): as the sequence (Q16531 whole entry partner) above

Row | Compound | inhibition at 0.5 µM [1] | inhibition at 2 µM [1] | CK1α substrate protein remaining % (CK1α; [4]) | IKZF 1 substrate protein remaining % (IKZF1; [4]) | IKZF2 substrate protein remaining % (IKZF2; [4]) | IKZF3 substrate protein remaining % (IKZF3; [4]) | Wee1 substrate protein remaining % (WEE1; [4]) | GSPT1 substrate protein remaining % (GSPT1; [4]) | inhibition at 0.01 µM [2] | inhibition at 0.5 µM [2] | CK1α substrate protein remaining % (CK1α; [5]) | IKZF 1 substrate protein remaining % (IKZF1; [5]) | IKZF2 substrate protein remaining % (IKZF2; [5]) | IKZF3 substrate protein remaining % (IKZF3; [5]) | Wee1 substrate protein remaining % (WEE1; [5]) | GSPT1 substrate protein remaining % (GSPT1; [5]) | inhibition at 0.01 µM ([3]; read-out: Inhibition Rate at 10 nM (%)) | inhibition at 0.5 µM ([3]; read-out: Inhibition Rate at 500 nM (%))
1 | O=C1CCC(N2Cc3c(CN4CCC(n5c(=O)[nH]c6cc(F)ccc65)CC4)cccc3C2=S)C(=O)N1 (stereo not drawn) [GT-08843, 3-(4-((4-(5-fluoro-2-oxo-2,3-dihydro-1H-benzo[d]imidazol-1-yl)piperidin-1-yl)methyl)-1-thioxoisoindolin-2-yl)piperidine-2,6-dione] | 60 to 80% | 80 to 100% | B (80%< substrate protein remaining %≤ 100%) | B (80%< substrate protein remaining %≤ 100%) | B (80%< substrate protein remaining %≤ 100%) | B (80%< substrate protein remaining %≤ 100%) | A (0% ≤ substrate protein remaining % ≤ 80%) | B (80%< substrate protein remaining %≤ 100%) | 60 to 70% | 60 to 70% | – | – | – | – | – | – | – | –
2 | Cc1nc(N2CCN(Cc3cccc4c3CN(C3CCC(=O)NC3=O)C4=S)CC2)c2c3c(sc2n1)CCCC3 (stereo not drawn) [GT-08923, 3-(4-((4-(2-methyl-5,6,7,8-tetrahydrobenzo[4,5]thieno[2,3-d]pyrimidin-4-yl)piperazin-1-yl)methyl)-1-thioxoisoindolin-2-yl)piperidine-2,6-dione] | 30 to 40% | 80 to 100% | – | – | – | – | – | – | 70 to 80% | 70 to 80% | B (80%< substrate protein remaining %≤ 100%) | B (80%< substrate protein remaining %≤ 100%) | B (80%< substrate protein remaining %≤ 100%) | B (80%< substrate protein remaining %≤ 100%) | A (0% ≤ substrate protein remaining % ≤ 80%) | B (80%< substrate protein remaining %≤ 100%) | – | –
3 | O=C1CCC(N2Cc3c(CN4CCC(c5ncnc6sc7c(c56)CCC7)CC4)cccc3C2=S)C(=O)N1 (stereo not drawn) [GT-08934, 3-(4-((4-(6,7-dihydro-5H-cyclopenta[4,5]thieno[2,3-d]pyrimidin-4-yl)piperidin-1-yl)methyl)-1-thioxoisoindolin-2-yl)piperidine-2,6-dione] | 40 to 53% | 53 to 60% | – | – | – | – | – | – | 30 to 40% | 40 to 50% | B (80%< substrate protein remaining %≤ 100%) | A (0% ≤ substrate protein remaining % ≤ 80%) | B (80%< substrate protein remaining %≤ 100%) | A (0% ≤ substrate protein remaining % ≤ 80%) | A (0% ≤ substrate protein remaining % ≤ 80%) | A (0% ≤ substrate protein remaining % ≤ 80%) | – | –
4 | O=C1CCC(N2Cc3c(CN4CC=C(c5ncnc6sccc56)CC4)cccc3C2=S)C(=O)N1 (stereo not drawn) [GT-08937, 3-(4-((4-(thieno[2,3-d]pyrimidin-4-yl)-3,6-dihydropyridin-1(2H)-yl)methyl)-1-thioxoisoindolin-2-yl)piperidine-2,6-dione] | 60 to 80% | 80 to 100% | – | – | – | – | – | – | 30 to 40% | 40 to 50% | B (80%< substrate protein remaining %≤ 100%) | B (80%< substrate protein remaining %≤ 100%) | B (80%< substrate protein remaining %≤ 100%) | B (80%< substrate protein remaining %≤ 100%) | A (0% ≤ substrate protein remaining % ≤ 80%) | A (0% ≤ substrate protein remaining % ≤ 80%) | – | –
5 | O=C1CCC(N2Cc3cc(CN4CCN(c5nc(N6CCOCC6)nc6c5SCC6)CC4)ccc3C2=S)C(=O)N1 (stereo not drawn) [GT-09329, 3-(5-((4-(2-morpholino-6,7-dihydrothieno[3,2-d]pyrimidin-4-yl)piperazin-1-yl)methyl)-1-thioxoisoindolin-2-yl)piperidine-2,6-dione] | 60 to 80% | 80 to 100% | – | – | – | – | – | – | 20 to 30% | 40 to 50% | B (80%< substrate protein remaining %≤ 100%) | B (80%< substrate protein remaining %≤ 100%) | A (0% ≤ substrate protein remaining % ≤ 80%) | B (80%< substrate protein remaining %≤ 100%) | B (80%< substrate protein remaining %≤ 100%) | A (0% ≤ substrate protein remaining % ≤ 80%) | – | –

Further lines, with some results ahead:

Row | inhibition at 0.5 µM [1] | inhibition at 2 µM [1] | Compound | CK1α substrate protein remaining % (CK1α; [4]) | IKZF 1 substrate protein remaining % (IKZF1; [4]) | IKZF2 substrate protein remaining % (IKZF2; [4]) | IKZF3 substrate protein remaining % (IKZF3; [4]) | Wee1 substrate protein remaining % (WEE1; [4]) | GSPT1 substrate protein remaining % (GSPT1; [4]) | inhibition at 0.01 µM [2] | inhibition at 0.5 µM [2] | CK1α substrate protein remaining % (CK1α; [5]) | IKZF 1 substrate protein remaining % (IKZF1; [5]) | IKZF2 substrate protein remaining % (IKZF2; [5]) | IKZF3 substrate protein remaining % (IKZF3; [5]) | Wee1 substrate protein remaining % (WEE1; [5]) | GSPT1 substrate protein remaining % (GSPT1; [5]) | inhibition at 0.01 µM ([3]; read-out: Inhibition Rate at 10 nM (%)) | inhibition at 0.5 µM ([3]; read-out: Inhibition Rate at 500 nM (%))
6 | 60 to 80% | 80 to 100% | O=C1CCC(N2Cc3c(CN4CC=C(c5n[nH]c6cc(F)ccc56)CC4)cccc3C2=S)C(=O)N1 (stereo not drawn) [GT-08850, 3-(4-((4-(6-fluoro-1H-indazol-3-yl)-3,6-dihydropyridin-1(2H)-yl)methyl)-1-thioxoisoindolin-2-yl)piperidine-2,6-dione] | B (80%< substrate protein remaining %≤ 100%) | B (80%< substrate protein remaining %≤ 100%) | B (80%< substrate protein remaining %≤ 100%) | B (80%< substrate protein remaining %≤ 100%) | B (80%< substrate protein remaining %≤ 100%) | A (0% ≤ substrate protein remaining % ≤ 80%) | 40 to 50% | 50 to 60% | – | – | – | – | – | – | – | –
7 | 40 to 53% | 80 to 100% | O=C1CCC(N2Cc3c(CN4CC(n5cnc6cc(F)ccc65)C4)cccc3C2=S)C(=O)N1 (stereo not drawn) [GT-08861, 3-(4-((3-(5-fluoro-1H-benzo[d]imidazol-1-yl)azetidin-1-yl)methyl)-1-thioxoisoindolin-2-yl)piperidine-2,6-dione] | – | – | – | – | – | – | 30 to 40% | 40 to 50% | B (80%< substrate protein remaining %≤ 100%) | B (80%< substrate protein remaining %≤ 100%) | B (80%< substrate protein remaining %≤ 100%) | B (80%< substrate protein remaining %≤ 100%) | A (0% ≤ substrate protein remaining % ≤ 80%) | B (80%< substrate protein remaining %≤ 100%) | – | –
8 | 40 to 53% | 80 to 100% | O=C1CCC(N2Cc3c(CN4CCN(c5ncnc6scc(-c7ccccc7)c56)CC4)cccc3C2=S)C(=O)N1 (stereo not drawn) [GT-08920, 3-(4-((4-(5-phenylthieno[2,3-d]pyrimidin-4-yl)piperazin-1-yl)methyl)-1-thioxoisoindolin-2-yl)piperidine-2,6-dione] | – | – | – | – | – | – | 50 to 60% | 30 to 40% | – | – | – | – | – | – | 30 to 40% | 40 to 50%
9 | 60 to 80% | 80 to 100% | O=C1CCC(N2Cc3c(CN4CCN(c5ncnc6sc7c(c56)CCC7)CC4)cccc3C2=S)C(=O)N1 (stereo not drawn) [GT-08925, 3-(4-((4-(6,7-dihydro-5H-cyclopenta[4,5]thieno[2,3-d]pyrimidin-4-yl)piperazin-1-yl)methyl)-1-thioxoisoindolin-2-yl)piperidine-2,6-dione] | – | – | – | – | – | – | 60 to 70% | 60 to 70% | B (80%< substrate protein remaining %≤ 100%) | B (80%< substrate protein remaining %≤ 100%) | A (0% ≤ substrate protein remaining % ≤ 80%) | A (0% ≤ substrate protein remaining % ≤ 80%) | A (0% ≤ substrate protein remaining % ≤ 80%) | B (80%< substrate protein remaining %≤ 100%) | – | –
10 | 60 to 80% | 80 to 100% | O=C1CCC(N2Cc3c(CN4CCC(c5ncnc6sccc56)CC4)cccc3C2=S)C(=O)N1 (stereo not drawn) [GT-08928, 3-(4-((4-(thieno[2,3-d]pyrimidin-4-yl)piperidin-1-yl)methyl)-1-thioxoisoindolin-2-yl)piperidine-2,6-dione] | – | – | – | – | – | – | 40 to 50% | 60 to 70% | B (80%< substrate protein remaining %≤ 100%) | B (80%< substrate protein remaining %≤ 100%) | B (80%< substrate protein remaining %≤ 100%) | B (80%< substrate protein remaining %≤ 100%) | A (0% ≤ substrate protein remaining % ≤ 80%) | B (80%< substrate protein remaining %≤ 100%) | – | –
